Data from patent publication US6462024B1, “Use of inhibitors of the sodium-hydrogen exchanger for the production of a medicament for decreasing undesired effects of substrates of the heart” (Aventis Pharma Deutschland GmbH, priority 1997, dated 2002).
Entries after “also recorded” stand apart in the source; their conditions may differ.

Tested on: isolated functioning rat heart
Assay: low flow ischemia and reperfusion in the isolated functioning rat heart (working-heart mode)
Set-up: species or system Wistar-Kyoto rats
Details: for Incidence of ventricular fibrillations (VF) / Mean duration of ventricular fibrillations (VF) / Incidence of ventricular tachycardias (VT) / Mean duration of ventricular tachycardias and fibrillations (VT + VF): cariporide 1 μmol/l, Rulide 20 mg/kg oral; for incidence of ventricular fibrillation during the reperfusion phase / length of ventricular arrhythmias during the reperfusion phase: macrolide (Rulide) group versus macrolide-pretreated hearts treated with cariporide
Experimental: All investigations were carried out using hearts of Wistar-Kyoto rats (300-400 g body weight, BW). The rats were kept on a standard diet and had free access to water. The rats were anesthetized with pentobartital (60 mg/kg, i.p.), heparinized (500 I.U./100 g BW i.p.) and respirated with room air via a cannula which was inserted into the trachea. The thorax was then opened, and the heart was removed and placed in a 4° C. physiological solution. After cannulation of the aorta, the hearts were suspended in the unit and perfused in a retrograde manner according to the Langendorff method with an oxygenated (95% O2, 5% CO2), noncirculating Tyrode solution (in mmol/l: NaCl 124.6; KCl 4.0; CaCl2 2.2; MgCl2 1.1; NaHCO3 24.9; NaH2PO4 0.3; glucose 11.1) using a perfusion pressure of 51 mm Hg. The pulmonary artery and the left auricle were then cannulated and all pulmonary veins were ligated close to the auricle. After an equilibration phase of 15 minutes, the retrograde perfusion was changed into an anterograde perfusion (working-heart mode). At the same time, the filling pressure was adjusted to 11 mm Hg and the afterload to 51 mm Hg. The hearts were paced during the entire experiment at a frequency of 5 Hz. After 15 minutes in the working mode, the coronary flow was reduced by 90% in order to include a global low flow ischemia. The aortic pressure drops from 51 to 11 mm Hg in the course of this. This situation represents an angina pectoris attack in the patient. The low flow ischemia lasted 30 minutes. The hearts were then reperfused for 15 minutes in the Langendorff mode and for a further 15 minutes in the working mode. All animals received oral Rulide (macrolide, 20 mg/kg) dissolved in 1 ml of olive oil, or only 1 ml of olive oil (control), before the experiments. The Na^+/H^+ exchange inhibitor cariporide (1 μmol/l) and its vehicle (Tyrode solution) were added directly to the perfusion solution, i.e. immediately before the latter flows into the heart. The computer-controlled infusion of cariporide and the vehicle solution was begun 15 minutes before low flow ischemia and lasted for the entire experiment. The infusion quantity was 1:100th of the heart minute volume. The following parameters were measured 15 minutes before ischemia and at the end of the reperfusion phase: left ventricular pressure (LVP), left auricle pressure (LAP), aortic pressure (AP), heart-time volume (HTV), coronary flow (CF), aortic flow (AF), heart rate (HR), contractility (dP/dtmax), left ventricular pressure increase (LVPI) and the external heart work (EHW). From these values, the recovery (values after reperfusion based on the starting values before ischemia in %) was calculated. Moreover, the ECG was recorded during the entire experiment and the sum of the individual arrhythmia intervals (ventricular tachycardias and ventricular fibrillations) over the entire experimental period was formed.

[1] = pretreatment with Rulide, ischemia and reperfusion

CC(C)c1ccc(C(=O)NC(=N)N)cc1S(C)(=O)=O [Cariporide (HOE642), cariporide]
effect on the arrhythmias during ischemia (during ischemia): no effect | Incidence of ventricular fibrillations (VF) (during ischemia): 33% | Mean duration of ventricular fibrillations (VF) (during ischemia): 38 ± 26 s | Incidence of ventricular fibrillations (VF) (during reperfusion): 0% | Incidence of ventricular tachycardias (VT) (during reperfusion): 100% | Mean duration of ventricular tachycardias and fibrillations (VT + VF) (during reperfusion): 204 ± 32 s | incidence of ventricular fibrillation during the reperfusion phase: 38% | length of ventricular arrhythmias during the reperfusion phase: 198 s | cardiotoxic effect of the macrolide (pretreatment of the heart with cariporide, ischemia and reperfusion): completely prevented; also recorded: completely inhibits

CC[C@H]1OC(=O)[C@H](C)[C@@H](O[C@H]2C[C@@](C)(OC)[C@@H](O)[C@H](C)O2)[C@H](C)[C@@H](O[C@@H]2O[C@H](C)C[C@H](N(C)C)[C@H]2O)[C@](C)(O)C[C@@H](C)/C(=N\OCOCCOC)[C@H](C)[C@@H](O)[C@]1(C)O [Rulide, reference compound]
Incidence of ventricular fibrillations (VF) (during ischemia): 100% | Mean duration of ventricular fibrillations (VF) (during ischemia): 181 ± 79 s | Incidence of ventricular fibrillations (VF) (during reperfusion): 100% | Incidence of ventricular tachycardias (VT) (during reperfusion): 100% | Mean duration of ventricular tachycardias and fibrillations (VT + VF) (during reperfusion): 1709 ± 319 s | incidence of ventricular fibrillation during the reperfusion phase: 100% | length of ventricular arrhythmias during the reperfusion phase: 1709 s | incidence and duration of ventricular arrhythmias compared with the control group [1]: increase in the incidence and the duration of ventricular arrhythmias | recovery compared with the control group [1]: further impairment of recovery
